According to patent US20190210973A1, “COMPOUNDS AND METHODS FOR TREATMENT OF CYSTIC FIBROSIS” (The Curators of the University of Missouri, priority 2018, published 2019):
“And” between values parts separate entries of the source, which are not always exact repeats. Equal entries are not always repeated. “Also recorded” adds a separate entry of the source.

Tests used:
[1] = biological target: T1, G551D-CFTR (Homo sapiens, UniProt P13569, G551D); conditions: cited from earlier work
T1 construct: The cDNA constructs of CFTR (G551D and delF508) were co-transfected with peGFP-C3; expressed in transfected cells; host or cells: CHO cells (ATCC), transient co-transfection with pEGFP-C3 (GFP as a separate marker, not fused)

[2] = biological target: delF508-CFTR (Homo sapiens, UniProt P13569, DEL508-508); test: Western blot of delF508-CFTR membrane (surface) expression, Band C; assay type: cell-based; design: delF508 stably-transfected C127 cells were cultured in DMEM with 10% FBS in 6-well plates; expressed in transfected cells; host or cells: C127 cells stably expressing delF508-CFTR; conditions: for influence on the effect of Lumacaftor (VX-809) on membrane expression of delF508-CFTR (words): added to 3 μM VX-809
Description: The amount of CFTR proteins in the cell membrane can be determined with Western blot analysis. Like all membrane proteins in the cell, the CFTR protein is synthesized in the endoplasmic reticulum (ER), translocated to the Golgi apparatus for glycosylation before trafficked to the plasma membrane. Because of the addition of complex sugar molecules to CFTR, the molecular weight of “mature” or post-Golgi CFTR in the plasma membrane is higher than that of newly synthesized proteins in the ER. Thus, in Western blot, it is possible to discern two distinct bands: band C representing high molecular weight, mature CFTR, and band B low molecular weight, immature CFTR. While wild-type proteins are present mostly as band C, Class II disease-associated mutations such as delF508 causes a drastic diminution of band C, resulting in an effective decrease of N in the formula N×Po×i. The effects of the reagents (or CFTR correctors) that enhance band C can thus be quantitatively assessed with the Western blot analysis. By the same token, any interactions between different compounds, with positive or negative impact on band C, can be determined with this assay.
Western blot experiments were carried out in both transient expression system (CHO cells) and a stable cell line (C127 cells). CHO cells, grown in 35 mm dishes, were transfected with delF508-CFTR construct in pcDNA plasmids using X-tremeGENE (Roche). Six hours after transfection, tested compounds were added to the medium. In case of delF508-CFTR-expressing stable C127 cells, compounds were added to the medium at about 30% confluence. In both cases, cells were lysed 18 hours post drug treatment using 1×SDS loading buffer. Cell lysates were sheared by pushed through 18G needles. Whole cell lysate were separated in 4˜20% gradient gels (Bio-Rad Laboratories) and transferred onto nitrocellulose membranes. The membranes were blocked with 5% milk in TBST buffer (20 mM Tris, 137 mM NaCl, 0.1% Tween 20) at 4° C. overnight. The membranes were then probed with anti-CFTR antibody (AB596 from the Cystic Fibrosis Foundation) and anti-vimentin antibody as a control (Santa Cruz Biotechnology) at room temperature for two hours. The membranes were washed with TBST five times and then incubated with anti-mouse IgG, HRP-linked antibody (Cell Signaling Technology) at room temperature for one hour. The membranes were washed three times with TBST and developed with chemiluminescence reagent (Thermo Scientific). The luminescence was detected and quantified by a Molecular Image Chemi Doc (Bio-Rad Laboratories).
For Western blotting experiments, delF508 stably-transfected C127 cells were cultured in DMEM with 10% FBS in 6-well plates. Different tested compounds were added to the culture medium within 24 hours of passage to the desired concentration. Cells were lysed 18 hours post drug treatment using 1×SDS loading buffer. Cell lysates were sheared by pushed through 18G needles. Whole cell lysates were separated in 4-20% gradient gels (Bio-Rad Laboratories) and transferred onto nitrocellulose membranes. The membranes were blocked with 5% milk in TBST buffer (20 mM Tris, 137 mM NaCl, 0.1% Tween 20) at 4° C. overnight. The membranes were then probed with anti-CFTR antibody (AB660 from CFTR foundation) and anti-vimentin antibody as a loading control (Santa Cruz Biotechnology) at room temperature for two hours. The membranes were washed with TBST five times and then incubated with anti-mouse IgG, HRP linked antibody (Cell Signaling Technology) at room temperature for one hour. The membranes were washed three times with TBST and developed with chemiluminescence reagent (Thermo Scientific). The luminescence was detected by a Molecular Image Chemi Doc (Bio-Rad Laboratories). […]

Sequence of delF508-CFTR (P13569 with tags, fused parts or gaps DEL508-508): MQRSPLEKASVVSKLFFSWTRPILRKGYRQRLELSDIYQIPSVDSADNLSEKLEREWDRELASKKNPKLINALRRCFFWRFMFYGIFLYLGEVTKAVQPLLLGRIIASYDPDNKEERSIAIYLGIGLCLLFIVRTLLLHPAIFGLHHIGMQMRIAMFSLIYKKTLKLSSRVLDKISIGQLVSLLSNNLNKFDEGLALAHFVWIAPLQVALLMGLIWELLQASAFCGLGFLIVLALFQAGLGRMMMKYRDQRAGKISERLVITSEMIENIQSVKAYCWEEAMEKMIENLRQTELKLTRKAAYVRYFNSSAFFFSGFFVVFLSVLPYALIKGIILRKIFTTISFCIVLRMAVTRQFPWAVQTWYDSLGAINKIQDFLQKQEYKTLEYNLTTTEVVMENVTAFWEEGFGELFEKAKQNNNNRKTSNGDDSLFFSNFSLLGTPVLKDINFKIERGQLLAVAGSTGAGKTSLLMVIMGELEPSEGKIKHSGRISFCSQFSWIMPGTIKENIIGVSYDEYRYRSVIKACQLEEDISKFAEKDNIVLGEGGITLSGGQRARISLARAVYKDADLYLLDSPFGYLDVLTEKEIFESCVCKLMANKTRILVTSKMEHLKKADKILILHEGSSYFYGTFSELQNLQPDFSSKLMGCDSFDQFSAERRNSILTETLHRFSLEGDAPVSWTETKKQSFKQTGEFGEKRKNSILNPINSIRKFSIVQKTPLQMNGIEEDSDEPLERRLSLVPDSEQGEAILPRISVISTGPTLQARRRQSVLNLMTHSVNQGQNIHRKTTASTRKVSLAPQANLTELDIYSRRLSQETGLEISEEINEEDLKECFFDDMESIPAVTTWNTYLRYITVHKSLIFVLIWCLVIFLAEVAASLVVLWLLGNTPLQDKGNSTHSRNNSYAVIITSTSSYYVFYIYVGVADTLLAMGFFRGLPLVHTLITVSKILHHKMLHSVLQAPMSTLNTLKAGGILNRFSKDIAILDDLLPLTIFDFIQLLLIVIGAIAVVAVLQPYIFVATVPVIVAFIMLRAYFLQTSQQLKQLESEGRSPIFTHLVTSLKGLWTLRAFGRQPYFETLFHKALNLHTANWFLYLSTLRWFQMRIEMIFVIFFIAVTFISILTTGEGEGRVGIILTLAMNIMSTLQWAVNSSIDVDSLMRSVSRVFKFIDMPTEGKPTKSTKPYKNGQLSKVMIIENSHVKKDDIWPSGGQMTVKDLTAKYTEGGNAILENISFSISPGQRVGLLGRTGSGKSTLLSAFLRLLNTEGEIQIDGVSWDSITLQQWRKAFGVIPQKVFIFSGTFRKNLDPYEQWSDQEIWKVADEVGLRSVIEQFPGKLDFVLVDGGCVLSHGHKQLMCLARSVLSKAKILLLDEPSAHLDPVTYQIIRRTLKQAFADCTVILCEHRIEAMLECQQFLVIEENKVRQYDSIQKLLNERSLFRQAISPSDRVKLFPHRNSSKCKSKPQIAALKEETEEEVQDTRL
T1 sequence (P13569 whole entry G551D, the tested form may be a part): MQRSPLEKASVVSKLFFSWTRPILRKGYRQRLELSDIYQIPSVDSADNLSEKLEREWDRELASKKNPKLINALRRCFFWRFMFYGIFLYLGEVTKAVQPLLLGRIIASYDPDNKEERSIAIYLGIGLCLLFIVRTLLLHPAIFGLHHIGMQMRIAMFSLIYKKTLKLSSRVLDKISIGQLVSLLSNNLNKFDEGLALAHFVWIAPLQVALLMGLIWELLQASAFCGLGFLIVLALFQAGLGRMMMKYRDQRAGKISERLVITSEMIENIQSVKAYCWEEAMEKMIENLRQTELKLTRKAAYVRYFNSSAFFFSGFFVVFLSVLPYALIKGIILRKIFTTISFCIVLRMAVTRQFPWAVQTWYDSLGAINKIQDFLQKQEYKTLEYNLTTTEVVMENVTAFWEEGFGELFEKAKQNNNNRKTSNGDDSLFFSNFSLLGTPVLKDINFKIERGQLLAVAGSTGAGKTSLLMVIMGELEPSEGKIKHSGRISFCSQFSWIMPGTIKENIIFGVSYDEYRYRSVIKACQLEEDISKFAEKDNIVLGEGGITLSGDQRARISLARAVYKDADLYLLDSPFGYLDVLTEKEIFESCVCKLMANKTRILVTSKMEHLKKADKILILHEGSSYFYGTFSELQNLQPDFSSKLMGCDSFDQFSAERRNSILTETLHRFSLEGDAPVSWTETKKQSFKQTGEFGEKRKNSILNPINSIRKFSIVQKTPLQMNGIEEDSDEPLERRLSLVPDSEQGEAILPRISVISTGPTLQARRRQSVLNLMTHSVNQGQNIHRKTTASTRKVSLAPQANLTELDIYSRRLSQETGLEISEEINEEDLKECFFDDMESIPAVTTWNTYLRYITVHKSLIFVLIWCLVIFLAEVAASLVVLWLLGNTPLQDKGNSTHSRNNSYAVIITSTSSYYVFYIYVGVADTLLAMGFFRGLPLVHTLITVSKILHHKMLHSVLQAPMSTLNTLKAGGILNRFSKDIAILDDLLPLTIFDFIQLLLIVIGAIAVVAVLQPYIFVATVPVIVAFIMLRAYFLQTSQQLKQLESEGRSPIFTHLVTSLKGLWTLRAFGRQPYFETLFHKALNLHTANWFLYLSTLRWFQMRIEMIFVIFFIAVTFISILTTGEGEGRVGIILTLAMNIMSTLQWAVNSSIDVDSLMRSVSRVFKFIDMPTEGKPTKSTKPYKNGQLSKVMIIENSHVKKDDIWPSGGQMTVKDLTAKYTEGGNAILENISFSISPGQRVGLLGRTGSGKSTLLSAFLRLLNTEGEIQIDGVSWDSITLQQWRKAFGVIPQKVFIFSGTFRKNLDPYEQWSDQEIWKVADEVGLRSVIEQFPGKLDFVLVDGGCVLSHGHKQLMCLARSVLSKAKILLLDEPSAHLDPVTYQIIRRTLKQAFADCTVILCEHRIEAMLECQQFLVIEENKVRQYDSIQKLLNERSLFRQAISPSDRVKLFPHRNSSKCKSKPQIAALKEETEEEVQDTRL

## CC(C)(C)c1cc(C(C)(C)C)c(NC(=O)c2c[nH]c3ccccc3c2=O)cc1O [VX-770, Ivacaftor, reference compound]
[1]; Jih et al., PNAS 2013
  increase of the Po of G551D-CFTR: 8-10 folds
[1]; with Ivacaftor, literature
  function of G551D-CFTR relative to wild-type / normal: < 10% and ~10%
[2]; 3 μM VX-809 + 1 μM VX-770, C127 cells, lane 6, one value per experiment series
  surface expression of delF508-CFTR (Band C, corrected to vimentin, DMSO = 100): 334 ± 81, N = 5 and 182 ± 57, N = 4 and 172 ± 50, N = 4
[2]
  influence on the effect of Lumacaftor (VX-809) on membrane expression of delF508-CFTR (words): dampens this effect; also recorded: dampens the effect of VX-809
[2]; listed as Ivacaftor
  influence on the effect of Lumacaftor (VX-809) on membrane expression of delF508-CFTR (words): diminishes the effect of Lumacaftor
